Values joined by “and” are separate entries in the source; they are usually repeats but may differ in a detail not shown here. Equal values may be shown once. Read-outs that look alike come from different tables or passages of the source.
Columns and labels:
STAT1 and STAT5 = test: Western blot of STAT1 and STAT5 activation in A549 and PC-9 cells; assay type: cell-based, human
Procedure: (§1) Cells or tumor tissue were lysed with RIPA buffer (Beyotime, Shanghai, China) supplemented with protease inhibitors (Beyotime, Shanghai, China) and phosphatase inhibitors (Bimake, USA). Lysates were denatured by heating for 5 min at 99 °C and loaded on 4-10% SDS-polyacrylamide gel electrophoresis. Then the proteins were transferred to polyvinylidene fluoride (PVDF) membranes (Millipore, USA). The membranes were blocked and probed with primary antibodies and secondary HPR-conjugated antibodies. At last the membranes were detected by chemiluminescence (Tanon, Shanghai, China). For co-immunoprecipitation experiments, 293T cells were plated and grew to about 80% confluency, then co-transfected with plasmids of HA-STAT3 and Flag-STAT3 using Lipofectamine 2000. After 24 h, cells were treated with different concentrations of W2014-S for following 24 h, and stimulated with IL-6 (100 ng/mL) for 1 h. Cells were lysed with IP RIPA buffer (Beyotime, Shanghai, China) supplemented with protease inhibitors (Beyotime, Shanghai, China) and phosphatase inhibitors (Bimake, America), and lysates were cultured with Anti-flag Affinity Gel (B23102, Bimake, USA) overnight at 4 ℃. The gel was washed by PBST for three times and added 1×loading buffer and denatured by heating for 5 min at 99 ℃. Then the proteins were resolved on SDS-PAGE, transferred to PVDF membranes and analysed with immunoblotting.

STAT3-STAT3 dimerization = STAT3-STAT3 dimerization (Homo sapiens, UniProt P40763); test: Co-immunoprecipitation of HA-STAT3 and Flag-STAT3 in HEK-293T cells; assay type: cell-based; design: expressed in transfected cells; settings: 24 h, 50 ng/mL EGF 30 min
Procedure: as §1, with “After 24 h, cells were treated with different concentrations of W2014-S for following 24 h, and stimulated with IL-6 (100 ng/mL) for 1 h.” left out

pY705-STAT3 = test: Western blot of pY705-STAT3 in A549 cells; assay type: cell-based, human
Procedure: as §1

PC-9/GR cells = test: Cell apoptosis assay (Annexin V-FITC/PI flow cytometry), PC-9/GR; assay type: cell-based, human; settings: 72 h
Procedure: Briefly, aliquots of 2 × 10^5 cells were seeded into 6-well plates and incubated for 24 h at 37 °C. […] After trypsinization and gently washing cells once with medium, the cells were washed twice with cold PBS. The precipitation was resuspended by 400 μL of 1 × binding buffer, and then resuspended cells were transferred into new 1.5 mL EP tubes. Then 3 μL of Annexin V-FITC and 5 μL of propidium iodide were added to the resuspended cells with further incubation at room temperature for 15 min in the dark. The analysis was done on Guava easyCyte (USA) and FlowJo 7.6 software.

Pharmacokinetic study = assay type: in vivo, SD rats; settings: for MRT inf: read-out: MRTINF_obs
Procedure: W2014-S was given to SD rats (male, 230-260g, n = 6) by gavage and intravenous administration. The rats were fasted for 12 h before administration and remained fasting for 2 h. For oral gavage, W2014-S was dissolved in DMSO/0.5% HPMC (5/95, v/v/), and W2014-S was dissolved in DMSO/EtOH/PEG300/0.9% NaCl (5/5/40/50, v/v/v/v) for intravenous administration. The pharmacokinetic (PK) profiles were next evaluated in SD rats.

[1] = gefitinib 2 μM and/or W2014-S 1 μM

Sequence of STAT3-STAT3 dimerization (P40763 whole entry): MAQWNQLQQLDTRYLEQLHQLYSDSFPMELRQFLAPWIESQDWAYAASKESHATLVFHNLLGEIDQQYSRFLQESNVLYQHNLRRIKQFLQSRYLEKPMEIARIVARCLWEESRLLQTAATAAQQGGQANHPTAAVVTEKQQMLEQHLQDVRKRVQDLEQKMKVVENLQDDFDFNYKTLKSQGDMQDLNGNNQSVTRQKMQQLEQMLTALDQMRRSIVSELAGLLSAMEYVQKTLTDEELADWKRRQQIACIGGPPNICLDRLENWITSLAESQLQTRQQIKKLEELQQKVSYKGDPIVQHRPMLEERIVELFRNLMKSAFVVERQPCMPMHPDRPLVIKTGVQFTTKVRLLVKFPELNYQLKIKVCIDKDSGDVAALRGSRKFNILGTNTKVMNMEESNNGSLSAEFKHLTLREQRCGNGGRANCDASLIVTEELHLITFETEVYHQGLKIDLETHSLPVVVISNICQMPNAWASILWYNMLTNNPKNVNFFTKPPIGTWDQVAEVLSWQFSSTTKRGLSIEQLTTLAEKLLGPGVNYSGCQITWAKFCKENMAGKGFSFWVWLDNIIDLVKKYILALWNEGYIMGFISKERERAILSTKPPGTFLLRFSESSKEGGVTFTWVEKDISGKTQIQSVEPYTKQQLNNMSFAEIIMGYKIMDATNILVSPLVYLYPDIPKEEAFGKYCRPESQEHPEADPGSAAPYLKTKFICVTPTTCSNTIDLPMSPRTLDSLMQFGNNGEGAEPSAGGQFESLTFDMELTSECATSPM

For C[C@H](Oc1ccc(-c2nc3nc(C4=CCN(C(=O)OC(C)(C)C)CC4)ccc3[nH]2)cc1)c1ccccc1 [W2014-S], the “STAT1 and STAT5 activation” value (STAT1 and STAT5) was “no obvious effect”, the “binding of HA-STAT3 and Flag-STAT3 (STAT3 dimerization)” value (STAT3-STAT3 dimerization) was “inhibited the binding of HA-STAT3 and Flag-STAT3 in intact cells even at 0.3 μM” and the “phosphorylation level of STAT3” value (pY705-STAT3; A549, 0, 1, 3 and 5 μM, 24 h) was “inhibit the phosphorylation level of STAT3 in a dose dependent manner, and more potent than W2014-R”. For the same molecule, the “phosphorylation of STAT3 at Y705, time course” value (pY705-STAT3; A549, 1 μM, 0-24 h) was “inhibited after 1 h treatment”, the “effect on gefitinib-induced apoptosis” value (PC-9/GR cells; W2014-S 1 μM + gefitinib 2 μM) was “significantly enhanced gefitinib-induced apoptosis” and the Q1 (PC-9/GR cells; [1]) was 0.164%. For the same molecule, the Q2 (PC-9/GR cells; [1]) was 4.50%, the Q3 (PC-9/GR cells; [1]) was 3.47% and the Q4 (PC-9/GR cells; [1]) was 91.9%. For the same molecule, the “Concentration in rat plasma, individual animals 4-6” value (shortened to “Concentration in rat plasma”) (Pharmacokinetic study; i.v. 3 mg/kg, 0.05 h, 3 mg/kg) was 335 ng/mL and 339 ng/mL, the “Concentration in rat plasma” value (Pharmacokinetic study; i.v. 3 mg/kg, 0.25 h, 3 mg/kg) was 145 ng/mL and 134 ng/mL and the “Concentration in rat plasma” value (Pharmacokinetic study; i.v. 3 mg/kg, 0.75 h, 3 mg/kg) was 66.9 ng/mL and 80.1 ng/mL. For the same molecule, the “Concentration in rat plasma” value (Pharmacokinetic study; i.v. 3 mg/kg, 2.00 h, 3 mg/kg) was 17.6 ng/mL and 22.6 ng/mL, the “Concentration in rat plasma” value (Pharmacokinetic study; i.v. 3 mg/kg, 4.00 h, 3 mg/kg) was 3.60 ng/mL and 5.00 ng/mL and the “Concentration in rat plasma” value (Pharmacokinetic study; i.v. 3 mg/kg, 8.00 h, 3 mg/kg) was 1.10 ng/mL and 2.60 ng/mL and 2.20 ng/mL. For the same molecule, the “Concentration in rat plasma” value (Pharmacokinetic study; i.v. 3 mg/kg, 24.0 h, 3 mg/kg) was 1.30 ng/mL and 1.20 ng/mL, the concentration at 0.05 h (Pharmacokinetic study; male, SD, rat, plasma, iv, 3 mg/kg, i.v. 3 mg/kg, 0.05 h, read-out: Concentration in rat plasma, individual animals 4-6) was 454 ng/mL and the concentration at 0.05 h (Pharmacokinetic study; male, SD, rat, plasma, iv, 3 mg/kg, i.v. 3 mg/kg, 0.05 h, read-out: Concentration in rat plasma, mean) was 376 ng/mL. It also gave a concentration at 0.25 h (Pharmacokinetic study; male, SD, rat, plasma, iv, 3 mg/kg, i.v. 3 mg/kg, 0.25 h, read-out: Concentration in rat plasma, individual animals 4-6) of 159 ng/mL, a concentration at 0.25 h (Pharmacokinetic study; male, SD, rat, plasma, iv, 3 mg/kg, i.v. 3 mg/kg, 0.25 h, read-out: Concentration in rat plasma, mean) of 146 ng/mL and a concentration at 0.75 h (Pharmacokinetic study; male, SD, rat, plasma, iv, 3 mg/kg, i.v. 3 mg/kg, 0.75 h, read-out: Concentration in rat plasma, individual animals 4-6) of 59.3 ng/mL. For the same molecule, the concentration at 0.75 h (Pharmacokinetic study; male, SD, rat, plasma, iv, 3 mg/kg, i.v. 3 mg/kg, 0.75 h, read-out: Concentration in rat plasma, mean) was 68.8 ng/mL, the concentration at 2 h (Pharmacokinetic study; male, SD, rat, plasma, iv, 3 mg/kg, i.v. 3 mg/kg, 2.00 h, read-out: Concentration in rat plasma, individual animals 4-6) was 13.4 ng/mL and the concentration at 2 h (Pharmacokinetic study; male, SD, rat, plasma, iv, 3 mg/kg, i.v. 3 mg/kg, 2.00 h, read-out: Concentration in rat plasma, mean) was 17.9 ng/mL. For the same molecule, the concentration at 4 h (Pharmacokinetic study; male, SD, rat, plasma, iv, 3 mg/kg, i.v. 3 mg/kg, 4.00 h, read-out: Concentration in rat plasma, individual animals 4-6) was 2.9 ng/mL, the concentration at 4 h (Pharmacokinetic study; male, SD, rat, plasma, iv, 3 mg/kg, i.v. 3 mg/kg, 4.00 h, read-out: Concentration in rat plasma, mean) was 3.83 ng/mL and the concentration at 8 h (Pharmacokinetic study; male, SD, rat, plasma, iv, 3 mg/kg, i.v. 3 mg/kg, 8.00 h) was 1.97 ng/mL. It also gave a concentration at 24 h (Pharmacokinetic study; male, SD, rat, plasma, iv, 3 mg/kg, i.v. 3 mg/kg, 24.0 h, read-out: Concentration in rat plasma, individual animals 4-6) of 0.9 ng/mL, a concentration at 24 h (Pharmacokinetic study; male, SD, rat, plasma, iv, 3 mg/kg, i.v. 3 mg/kg, 24.0 h, read-out: Concentration in rat plasma, mean) of 1.13 ng/mL and a half-life (Pharmacokinetic study; male, SD, rat, plasma, iv, 3 mg/kg, i.v. 3 mg/kg, individual animals 4-6) of 15.3 h. It also gave an AUC(0-inf) (Pharmacokinetic study; male, SD, rat, plasma, iv, 3 mg/kg, rat, i.v. 3 mg/kg, individual animals 4-6, read-out: AUCINF_obs) of 228 ng·h/mL, an AUC(0-t) (Pharmacokinetic study; male, SD, rat, plasma, iv, 3 mg/kg, rat, i.v. 3 mg/kg, individual animals 4-6, read-out: AUClast) of 208 ng·h/mL and a clearance (Pharmacokinetic study; male, SD, rat, plasma, iv, 3 mg/kg, rat, i.v. 3 mg/kg, individual animals 4-6, read-out: CL_obs) of 219 mL/min/kg. The MRT inf (Pharmacokinetic study; male, SD, rat, plasma, iv, 3 mg/kg, rat, i.v. 3 mg/kg, individual animals 4-6) was 5.79 h, the MRT inf (Pharmacokinetic study; male, SD, rat, plasma, iv, 3 mg/kg, rat, i.v. 3 mg/kg, mean) was 6.3 h and the concentration at 0.25 h (Pharmacokinetic study; male, SD, rat, plasma, po, 10 mg/kg, p.o. 10 mg/kg, 0.25 h, read-out: Concentration in rat plasma, mean) was 19.6 ng/mL. The concentration at 0.5 h (Pharmacokinetic study; male, SD, rat, plasma, po, 10 mg/kg, p.o. 10 mg/kg, 0.50 h) was 22.5 ng/mL, the concentration at 1 h (Pharmacokinetic study; male, SD, rat, plasma, po, 10 mg/kg, p.o. 10 mg/kg, 1.00 h) was 16.1 ng/mL and the concentration at 2 h (Pharmacokinetic study; male, SD, rat, plasma, po, 10 mg/kg, p.o. 10 mg/kg, 2.00 h, read-out: Concentration in rat plasma, individual animals 1-3) was 5.7 ng/mL.

Reference: PMC7738869, “A novel STAT3 inhibitor W2014-S regresses human non-small cell lung cancer xenografts and sensitizes EGFR-TKI acquired resistance” (Theranostics, 2021)
